# In PMC9555642 (PLoS ONE, 2022):
# What was measured:
# HDAC4 = molecular target: T1, HDAC4 (Homo sapiens, UniProt P56524); experiment: HDAC enzymatic activity (Eurofins); assay type: biochemical; conditions: Class IIA; ACY-1083 mean of two separate measurements, Ricolinostat and Tubastatin A one measurement
# T1 construct: purchased Eurofins Pharma Discovery Services 2493
# COPD HBEC ALI cultures [1] = experiment: Paracellular permeability (FITC-dextran) in unchallenged ALI cultures; assay type: cell-based, human; conditions: 10 μM basolaterally for eight days, no challenge, four COPD donors, p = 0.0023
# Method: Passage one cells were seeded into T75 cell culture flasks (250,000 cells/flask) and expanded in PneumaCult ExPlus medium (StemCell Technologies, Vancouver, Canada) at 37°C, 5% CO2. Once cells reached 70% confluency, they were dissociated with TrypLE Express dissociation media (Thermo Fisher Scientific, Waltham, USA) and frozen at -150°C in ExPlus with 10% DMSO. Passage two cells were thawed and seeded (20,000 cells/membrane) into 24-well HTS Transwell plates (Corning, Wiesbaden, Germany) for air-liquid interface (ALI) culturing. Cells were expanded in ExPlus medium until >50% confluent (four days). Apical medium was then removed, and basolateral medium was replaced with PneumaCult ALI medium (StemCell Technologies). Medium was changed three times per week during a four-week long differentiation phase.
# The paracellular permeability was determined by using fluorescein isothiocyanate labeled 4kD-dextran (Sigma-Aldrich, St. Louis, USA). 18 hours after addition of 0.2 mg FITC-dextran in 200 μL medium to the apical side of the ALI cultures, the fluorescence in the basolateral medium was measured using PHERAstar FSX (excitation 485 nm and emission 520 nm) (BMG LABTECH, Ortenberg, Germany). The time point was chosen for optimal window in the assays as well as practical reasons and has been kept consistent in between different stimulations throughout this work. […]
# COPD HBEC ALI cultures [2] = experiment: Whole cigarette smoke (WCS) challenge in ALI, FITC-dextran permeability; assay type: cell-based, human; conditions: 10 μM started after first smoke exposure, 4 exposures in 2 days, all concentrations except the highest (1, 0.5 and 0.2 l/min dilution), one COPD donor, exploratory
# Method: The paracellular permeability was determined by using fluorescein isothiocyanate labeled 4kD-dextran (Sigma-Aldrich, St. Louis, USA). 18 hours after addition of 0.2 mg FITC-dextran in 200 μL medium to the apical side of the ALI cultures, the fluorescence in the basolateral medium was measured using PHERAstar FSX (excitation 485 nm and emission 520 nm) (BMG LABTECH, Ortenberg, Germany). The time point was chosen for optimal window in the assays as well as practical reasons and has been kept consistent in between different stimulations throughout this work. Data was plotted as fold-change of 0.1% DMSO control.
# Whole cigarette smoke (WCS) experiments were performed using the Smoking Robot VC 10® S-TYPE (Vitrocell, Waldkirch, Germany). The Vitrocell smoke robot delivers either WCS or humidified air to the apical surface of the cell layers. Briefly, inserts with fully differentiated HBEC in ALI from one COPD donor were placed in the Vitrocell smoke chamber filled with DMEM medium (Thermo Fisher Scientific) and CS or humidified air was puffed onto the apical surface. ISO Puff Standard was used with each CS exposure consisting of two 3R4F Kentucky research cigarettes (one 35 ml puff every 60 seconds). Cells were exposed to WCS four times during two days with a minimum of two hours elapsed between smoke exposures. […] Permeability was measured 20 hours after the last smoke session.
# COPD HBEC ALI cultures [3] = experiment: AB/PAS staining and quantification of cellular features from IHC sections, TNF challenge; assay type: cell-based, human
# Method: Eight days post-treatment, HBEC ALI-cultures were fixed in 4% paraformaldehyde for fifteen minutes and washed three times in PBS. Dehydration in ethanol and xylene followed by paraffin (Merck, New Jersey, USA) infiltration was done with a short program for biopsies (1 hour 55 minutes) on a Microm STP 120 Spin Tissue Processor (Thermo Fisher Scientific). Cell layers were embedded in paraffin and 4 μm thick sections were made using a Leica RM2165 microtome (Leica, Wetzlar, Germany). Alcian Blue/Periodic Acid-Schiff (AB/PAS) with Haematoxylin staining were performed using standard protocols on a Leica ST5020. After staining, the sections were dehydrated in ethanol and xylene, mounted with Pertex mounting medium (Histolab, Göteborg, Sweden) and scanned with a Aperio Scanscope slide scanner (Leica Biosystems, Buffalo Grove, USA).
# IHC images were analyzed in HALO v3.1 (Indica Labs). For all analyses, images were annotated manually to exclude out of focus and damaged areas, and a random forest classifier was applied to intact areas of the sections to detect epithelial areas. All following analyses were done in epithelial areas only. For goblet cell counting, algorithm CytoNuclear 2.0.9 was used to segment cells based on nuclear staining and categorize them as AB/PAS (mucin) positive and negative cells based on cytoplasmic AB staining. Goblet cell counting was represented as the percentage of AB positive cells of total cells.
# To measure epithelial thickness, the apical and basal sides of the epithelium in the sections were manually delineated using a pen annotation tool. Distance between paired apical and basal annotations was measured every 10 μm along the epithelium, and recorded in sequence as epithelial thickness.
# To measure intraepithelial and intercellular AB staining, algorithm Area Quantification v2.1.7 was used. Two thresholds were applied to capture AB staining: a lower one to detect all AB staining in both goblet cells and intercellular areas, and a higher one to detect the stronger AB staining inside goblet cells only. Intercellular AB area was calculated by subtracting goblet AB staining (higher threshold) from total AB staining (by lower threshold).
# COPD HBEC ALI cultures [4] = experiment: Mucociliary clearance (bead tracking), TNF challenge; assay type: cell-based, human; conditions: TNF 20 ng/ml, day ten, 3 COPD donors, p = 0.0026
# Method: In the TNF (20 ng/ml) challenged cultures, the apical surfaces were washed with pre-warmed PBS the day before addition of 50 μL of CountBright Absolute Counting beads (Invitrogen, Carlsbad, CA, USA) diluted 1:10 000 in PBS with Mg^2+ and Ca^2+. Inserts were transferred to a 12-well glass bottom plate (Cellvis, Mountain View, USA) and monitored in a Zeiss LSM 880 (Carl Zeiss AG, Oberkochen, Germany) at 37°C. Three regions in each well of each condition in three COPD donors were filmed and analyzed. Beads were tracked in the ImageJ software with the Fiji plugin Tracking and the mean velocity of each bead was plotted.
# [5] = system: healthy HBEC at ALI cultures; experiment: Cell velocity (Particle Image Velocimetry); assay type: cell-based, human; conditions: TNF-challenged healthy HBEC, brought down to unchallenged levels, 0.0411
# From the text: For cilia beating frequency (CBF) and cell velocity measurements, donor cells of primary healthy HBECs were amplified on rat tail collagen I coated flasks and seeded on 12-mm-diameter Transwell inserts.
# Cell migration was quantified by performing Particle Image Velocimetry (PIVlab) on Matlab using multi-pass cross-correlation analysis with decreasing interrogation window size on image pairs to obtain the spatial velocity field as described previously.
# [6] = system: deacetylation of α-tubulin; design: method as in PMID 28267067; conditions: read-out: cell potency (IC50), inhibition of deacetylation of α-tubulin; cited from earlier work
# T1 sequence (P56524 whole entry): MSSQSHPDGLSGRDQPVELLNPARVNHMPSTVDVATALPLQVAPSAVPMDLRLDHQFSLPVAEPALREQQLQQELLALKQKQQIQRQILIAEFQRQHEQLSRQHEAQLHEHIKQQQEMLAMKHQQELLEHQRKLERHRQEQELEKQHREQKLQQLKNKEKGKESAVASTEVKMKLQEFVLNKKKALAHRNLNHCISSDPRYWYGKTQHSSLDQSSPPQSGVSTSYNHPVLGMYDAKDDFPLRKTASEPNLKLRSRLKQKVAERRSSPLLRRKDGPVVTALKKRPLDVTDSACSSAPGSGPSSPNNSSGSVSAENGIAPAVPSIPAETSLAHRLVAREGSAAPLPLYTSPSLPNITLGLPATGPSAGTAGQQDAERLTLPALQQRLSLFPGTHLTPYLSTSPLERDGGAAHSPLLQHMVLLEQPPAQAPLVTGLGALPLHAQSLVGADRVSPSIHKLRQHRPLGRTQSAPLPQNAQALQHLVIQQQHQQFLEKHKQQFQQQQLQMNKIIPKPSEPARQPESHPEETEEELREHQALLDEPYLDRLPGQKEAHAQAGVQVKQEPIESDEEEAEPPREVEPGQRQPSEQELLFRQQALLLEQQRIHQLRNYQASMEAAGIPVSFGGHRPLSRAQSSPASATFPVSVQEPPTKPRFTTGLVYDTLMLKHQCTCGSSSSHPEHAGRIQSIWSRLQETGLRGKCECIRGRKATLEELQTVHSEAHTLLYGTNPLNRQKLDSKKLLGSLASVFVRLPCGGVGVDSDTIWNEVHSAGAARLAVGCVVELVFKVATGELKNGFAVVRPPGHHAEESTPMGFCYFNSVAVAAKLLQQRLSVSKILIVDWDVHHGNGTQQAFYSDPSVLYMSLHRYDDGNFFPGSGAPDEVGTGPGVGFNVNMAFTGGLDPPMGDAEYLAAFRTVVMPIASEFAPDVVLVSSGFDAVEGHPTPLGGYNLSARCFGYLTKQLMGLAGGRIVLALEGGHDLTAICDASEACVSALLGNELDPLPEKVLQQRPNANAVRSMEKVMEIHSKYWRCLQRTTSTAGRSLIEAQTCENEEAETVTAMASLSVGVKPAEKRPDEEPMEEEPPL
substance,measurement,setting,value
ACY-1083,IC50,HDAC4,12.5 µM
same,passage of FITC-dextran (paracellular permeability),COPD HBEC ALI cultures [1],significantly reduced
same,paracellular permeability after WCS challenge,COPD HBEC ALI cultures [2],decrease permeability
same,intraepithelial and intercellular AB area,"COPD HBEC ALI cultures [3]; TNF 20 ng/ml + ACY-1083, p<0.0001",reduced to the no-TNF level
same,percentage of goblet cells,"COPD HBEC ALI cultures [3]; TNF 20 ng/ml + ACY-1083, vs no-TNF DMSO control or TNF DMSO culture",increased but did not differ significantly
same,epithelial thickness variation (variance in height),"COPD HBEC ALI cultures [3]; TNF-challenged wells, four donors, p<0.001",smaller
same,goblet cell percentage,COPD HBEC ALI cultures [3]; only ACY-1083 vs no-TNF DMSO,No difference
same,bead velocity (mucociliary clearance),COPD HBEC ALI cultures [4],significantly protected from reduction in speed
same,cellular velocity,[5],counteract this increase
same,IC50,[6],0.03 to 0.1 µM
